The results in this text go back to patent publication US20250326755A1, “CYCLIC QUATERNARY AMMONIUM SALT COMPOUND, AND PREPARATION METHOD THEREFOR AND USE THEREOF” (YICHANG HUMANWELL PHARMACEUTICAL CO., LTD., priority 2022, published 2025).

Like-named read-outs stand apart in the source and are kept apart here.

One data set deals with sciatic nerve of the rat. In kind it is in vivo, SD rats. The protocol:
The experimental methods described in the following test examples were standard procedures unless otherwise specified. All experimental animals used in the following test examples were SD rats purchased from Hunan Slac Jingda Experimental Animal Co., Ltd. Other test materials, unless stated otherwise, were purchased from conventional biochemical reagent suppliers.
The compounds listed in Table 1 and levobupivacaine hydrochloride (positive control) were administered to three groups of rats fully acclimated to the experimental environment, with one rat per group.
Solution Preparation: 2 mg/ml Levobupivacaine Hydrochloride Injection: 2.670 ml of 7.5 mg/ml levobupivacaine hydrochloride injection (Batch No. 92S0702) was pipetted into a 10 ml volumetric flask. 0.9% NaCl solution was added until the meniscus was level with the calibration line, and the solution was inverted and mixed thoroughly, to prepare 2 mg/ml levobupivacaine hydrochloride injection. 2 mg/ml Example Compound Solution: 6.6 mg of the example compound was accurately weighed and dissolved in 3.3 ml of 0.9% NaCl solution to prepare a 2 mg/ml example compound solution.
Both the positive control and the example compound were administered to each rat at 2 mg/ml, with an administration volume of 5 ml/kg, in a single injection near the sciatic nerve of the rat. After the administration, the rat was placed on a preheated hot plate (50±0.1° C.) of an intelligent hot plate instrument. […] The maximum thermal latency was controlled at 60 s. […] Any urine or feces on the hot plate was promptly cleaned and dried before subsequent tests.
Thermal latency results were expressed as the maximum proportional effect (MPE), calculated using the following formula.
Wherein: B represented the basal thermal latency of the rats; P was the maximum thermal latency C was the observed thermal latency at the detection time point.
Measurements were considered invalid if the MPE was less than 50% of the maximum proportional effect. If two consecutive measurements yielded an MPE of less than […], the experiment was terminated.

For data set [1], the system named is rat subcutaneous infiltration model. As to the kind of experiment: Local anesthetic effect by subcutaneous infiltration, Von Frey needle stimulation of back skin. In kind it is in vivo, SD rats. The note with it: 1 mg/ml, 0.5 mL subcutaneous injection on the back, 10 rats. On the procedure:
After shaving and disinfecting the backs of SD rats (half male and half female) weighing 190-210 grams, a circle with a diameter of approximately 1.5 cm was drawn on one side of the exposed skin. 0.5 mL of a solution containing the drug was subcutaneously injected into the skin in the center. The solution, using physiological saline as the solvent, contained either 2 mg/ml bupivacaine hydrochloride or 1 mg/ml concentration of the compounds listed in Table 2 of the present application. Each group consisted of 10 rats. A Von Frey fiber with a 100-gram force was attached to a needle for local skin stimulation. One minute after drug administration, the rat's response to the stimulus was measured. Testing was conducted at 6 different points within the marked area of drug administration. Skin contraction, avoidance, and other behaviors following stimulation were observed and recorded. Three points in the center and three points around the circle were stimulated, and the number of skin contraction and avoidance behaviors was recorded as N6. […] Each compound was tested on 10 rats.

The mark [2] stands for this setting: 2 mg/ml, 5 ml/kg, single injection near the sciatic nerve of the rat, hot plate 50±0.1° C.

As to `CCCC[N+]1(CCCCOc2ccccc2)CCCC[C@H]1C(=O)Nc1c(C)cccc1C` (stereo partly drawn) [Compound of Example 4, (2S)-1-Butyl-2-((2,6-dimethylphenyl)carbamoyl)-1-(4-(phenoxy)butyl)piperidine bromide], in the data set on sciatic nerve of the rat (rat, in vivo), the Duration/h was 48 to 72 h and the “Onset Time/min” value came out at 1 min. Further, in data set [1], the Duration/h lay in the range of 72 to 96 h and the “Onset Time/min” value is listed as 1 min.
For the compound `CCCC[N+]1(CCCCOc2ccc3cc(C(C)=O)ccc3c2)CCCC[C@H]1C(=O)Nc1c(C)cccc1C` (stereo partly drawn) [Compound of Example 43, (2S)-1-(4-((6-acetylnaphth-2-yl)oxy)butyl)-1-butyl-2-((2,6-dimethylphenyl)carbamoyl) piperidine bromide], in the data set on sciatic nerve of the rat (setting [2]), the Duration/h fell in the range of 48 to 72 h and the “Onset Time/min” value turned out to be 1 min.
Turning to `CCCC[N+]1(CCCCCN2CCn3cccc3C2c2ccccc2)CCCC[C@H]1C(=O)Nc1c(C)cccc1C` (stereo partly drawn) [Compound of Example 13, (2S)-1-Butyl-2-((2,6-dimethylphenyl)carbamoyl)-1-(5-1-phenyl-3,4-dihydropyrrolo[1,2-a]pyrazin-2(1H)-yl)pentyl)piperidine bromide], in the data set with sciatic nerve of the rat (setting [2]), the Duration/h was 24 to 48 h and the “Onset Time/min” value was 1 min. In data set [1], the Duration/h fell in the range of 48 to 72 h and the “Onset Time/min” value was determined as 1 min.
For `Cc1cccc(C)c1NC(=O)[C@@H]1CCCC[N+]1(CCCCOc1ccccc1)CC(C)C` (stereo partly drawn) [Compound of Example 37, (2S)-1-(Isobutylmethyl)-2-((2,6-dimethylphenyl)carbamoyl)-1-(4-phenoxybutyl)piperidine bromide], in the data set with sciatic nerve of the rat (rat, in vivo), the Duration/h lay within 2 to 18 h and the “Onset Time/min” value was determined as 2 min.
The like results for `CCCC[N+]1(CCCCOc2cccc(C)c2)CCCC[C@H]1C(=O)Nc1ccccc1C` (stereo partly drawn) [Compound of Example 41, (2S)-1-Butyl-2-(o-tolylcarbamoyl)-1-(4-(m-tolyloxy)butyl)piperidinebromide] were, in that order, 2 to 24 h and 2 min.
The like results for `CCCC[N+]1(CCCOc2ccccc2)CCCC[C@H]1C(=O)Nc1c(C)cccc1C` (stereo partly drawn) [Compound of Example 34, (2S)-1-Butyl-2-((2,6-dimethylphenyl)carbamoyl)-1-(3-phenoxypropyl)piperidine bromide] were, in that order, 0 h and “No effect observed”.
Turning to `CCCC[N+]1(CCCCCN2CCn3ccnc3C2)CCCC[C@H]1C(=O)Nc1c(C)cccc1C` (stereo partly drawn) [Compound of Example 11, (2S)-1-Butyl-1-(5-(5,6-dihydroimidazo[1,2-a]pyrazin-7(8H)-yl)pentyl)-2-((2,6-dimethylphenyl)carbamoyl)piperidine bromide], in the data set on sciatic nerve of the rat (setting [2]), the Duration/h is 24 to 48 h and the “Onset Time/min” value is 1 min. In addition, in data set [1], the Duration/h lay within 48 to 72 h and the “Onset Time/min” value came to 1 min.
On to “(2S)-1-Butyl-2-((4-fluorophenyl)carbamoyl)-1-(4-(m-tolyloxy)butyl)piperidine bromide [Compound of Example 22]”, for which the Duration/h (with sciatic nerve of the rat (setting [2]); in data set [1]) was 48 to 72 h each time. The “Onset Time/min” value (in the data set on sciatic nerve of the rat (setting [2]); in data set [1]) was 1 min each time.
In the case of `CCCC[N+]1(CCCOc2cccc(C)c2)CCCC[C@H]1C(=O)Nc1c(C)cccc1C` (stereo partly drawn) [Compound of Example 35, (2S)-1-Butyl-2-((2,6-dimethylphenyl)carbamoyl)-1-(3-(m-tolyloxy)propyl)piperidine bromide], in the data set on sciatic nerve of the rat (setting [2]), the Duration/h is recorded as 0 h and the “Onset Time/min” value is “No effect observed”.
Turning to `CCCC[N+]1(CCCCOc2cccc(C)c2)CCCC[C@H]1C(=O)Nc1c(CC)cccc1CC` (stereo partly drawn) [Compound of Example 42, (2S)-1-Butyl-2-((2,6-diethylphenyl)carbamoyl)-1-(4-(m-tolyloxy)butyl)piperidine bromide], in the data set on sciatic nerve of the rat (rat, in vivo), the Duration/h lay within 2 to 24 h and the “Onset Time/min” value was found to be 2 min.
Turning to `CCCC[N+]1(CCCCCOc2ccccc2)CCCC[C@H]1C(=O)Nc1c(C)cccc1C` (stereo partly drawn) [Compound of Example 14, (2S)-1-Butyl-2-((2,6-dimethylphenyl)carbamoyl)-1-(5-(phenoxy)pentyl)piperidine bromide], in the data set on sciatic nerve of the rat (rat, in vivo), the Duration/h was in the range of 24 to 48 h and the “Onset Time/min” value is on record as 2 min. Also, in data set [1], the Duration/h is 48 to 72 h and the “Onset Time/min” value came out at 2 min.
Take `CCCC[N+]1(CCCCCNc2ccccc2)CCCC[C@H]1C(=O)Nc1c(C)cccc1C` (stereo partly drawn) [Compound of Example 7, (2S)-1-Butyl-2-((2,6-dimethylphenyl)carbamoyl)-1-(5-(phenylamino)pentyl)piperidine bromide]: in the data set with sciatic nerve of the rat (rat, in vivo), the Duration/h lay within 24 to 48 h and the “Onset Time/min” value is 2 min. In data set [1], the Duration/h lay in the range of 48 to 72 h and the “Onset Time/min” value worked out at 2 min.
`CCCC[N+]1(CCCCCOc2cccc(C)c2)CCCC[C@H]1C(=O)Nc1c(C)cccc1C` (stereo partly drawn) [Compound of Example 15, (2S)-1-Butyl-2-((2,6-dimethylphenyl)carbamoyl)-1-(5-(m-tolyloxy)pentyl)piperidine bromide]: in the data set with sciatic nerve of the rat (setting [2]), the Duration/h fell in the range of 24 to 48 h and the “Onset Time/min” value came out at 1 min. Besides, in data set [1], the Duration/h was 48 to 72 h and the “Onset Time/min” value is 1 min.
With `CCCC[N+]1(CCCCCN2CCn3cccc3C2C)CCCC[C@H]1C(=O)Nc1c(C)cccc1C` (stereo partly drawn) [Compound of Example 12, (2S)-1-Butyl-2-((2,6-dimethylphenyl)carbamoyl)-1-(5(1-methyl-3,4-dihydropyrrolo[1,2-a]pyrazin-2(1H)-yl)pentyl)piperidine bromide], in the data set on sciatic nerve of the rat (setting [2]), the Duration/h was in the range of 24 to 48 h and the “Onset Time/min” value is listed as 1 min. In data set [1], the Duration/h is 48 to 72 h and the “Onset Time/min” value stood at 1 min.
For the compound `CCCC[N+]1(CCCCNc2ccc(F)c(F)c2)CCCC[C@H]1C(=O)Nc1c(C)cccc1C.[Br-]` (stereo partly drawn) [Compound of Example 21, (2S)-1-Butyl-1-(4-((3,4-difluorophenyl)amino)butyl)-2-((2,6-dimethylphenyl)carbamoyl) piperidine bromide], in the data set with sciatic nerve of the rat (setting [2]), the Duration/h was 19 to 24 h and the “Onset Time/min” value came out at 1 min.
On to `CCCC[N+]1(CCCCNc2ccc(Cl)cc2)CCCC[C@H]1C(=O)Nc1c(C)cccc1C` (stereo partly drawn) [Compound of Example 20, (2S)-1-Butyl-1-(4-((4-chlorophenyl)amino)butyl)-2-((2,6-dimethylphenyl)carbamoyl)piperidine bromide], for which, in the data set with sciatic nerve of the rat (rat, in vivo), the Duration/h is 24 to 48 h and the “Onset Time/min” value worked out at 1 min.
As for `CCCC[N+]1(CCOCCOc2ccccc2)CCCC[C@H]1C(=O)Nc1c(C)cccc1C` (stereo partly drawn) [Comparative Example 1, (2S)-1-Butyl-2-((2,6-dimethylphenyl)carbamoyl)-1-(2-(2-phenoxyethoxy)ethyl)piperidine bromide, reference compound], the “the rat died, time after administration” value in the data set on sciatic nerve of the rat (2 mg/ml, 5 ml/kg, single injection near the sciatic nerve) was 1 (the rat died 4 h. Moreover, in the data set with sciatic nerve of the rat (rat, in vivo), the Duration/h is listed as 1 (the rat died 4 h and the “Onset Time/min” value is 2 min.
For `CCCC[N+]1(CCCCOc2cc(C)ccc2C(C)C)CCCC[C@H]1C(=O)Nc1c(C)cccc1C` (stereo partly drawn) [Compound of Example 23, (2S)-1-Butyl-2-((2,6-dimethylphenyl)carbamoyl)-1-(4-(2-isopropyl-5-methylphenoxy)butyl) piperidine bromide], in the data set on sciatic nerve of the rat (setting [2]), the Duration/h lay within 48 to 72 h and the “Onset Time/min” value came out at 1 min.
For the compound `CCCC[N+]1(CCCCOc2cccc(C)c2)CCCC[C@@H]1C(=O)Nc1c(C)cccc1C.[Cl-]` (stereo partly drawn) [Compound of Example 29, (2R)-1-Butyl-2-((2,6-dimethylphenyl)carbamoyl)-1-(4-(m-tolyloxy)butyl)piperidine chloride], in the data set with sciatic nerve of the rat (setting [2]), the Duration/h is 24 to 30 h and the “Onset Time/min” value is 1 min.
The corresponding values for `CCCC[N+]1(CCCCNc2c(C)cc(C)cc2C)CCCC[C@H]1C(=O)Nc1c(C)cccc1C` (stereo partly drawn) [Compound of Example 19, (2S)-1-Butyl-2-((2,6-dimethylphenyl)carbamoyl)-1-(4-(symmetricaltrimethylamino)butyl)piperidine bromide] are 2 to 18 h and 2 min.
